These results are taken from ChEMBL document CHEMBL1154115, “NO-glibenclamide derivatives: prototypes of a new class of nitric oxide-releasing anti-diabetic drugs” (Bioorg Med Chem, 2009).

One assay concerns Rattus norvegicus. Briefly: Hypoglycemic activity in streptozotocin-induced diabetic Wistar rat assessed as reduction in blood glucose AUC level at 10 mg/kg, ip measured for 2 hrs (Rvb= 45318 mg/dl/2 h). Type of assay: functional, organism-based. More on the design: dose 10 mg/kg.
A short description of assay [1]: Induction of 20 mM glucose-stimulated insulin secretion in human pancreatic islet cells assessed as insulin stimulation index at 100 uM by immunoradiometric assay. Type of assay: functional.
A further assay deals with Liver. Briefly: Induction of NO release in Wistar rat liver homogenate at 200 uM by amperometric detection method. It is filed as functional, tissue-based.
Another assay deals with Platelet. Briefly: Inhibition of ADP-induced platelet aggregation in human platelet-rich plasma at 100 uM treated 2 mins before ADP challenge by turbidimetric method. It is filed as functional. More on the design: scale not given: the % may be the effect or the level left.
A short description of assay [2]: Induction of 20 mM glucose-stimulated insulin secretion in human pancreatic islet cells assessed as insulin stimulation index at 10 uM by immunoradiometric assay. It is filed as functional.
The next assay concerns Aorta. Briefly: Vasorelaxant activity in endothelium-denuded Wistar rat thoracic aortic ring assessed as inhibition of KCl-induced contraction. Type of assay: functional, tissue-based.

Calls of active or inactive are those of the source. The calls are words filed in the database; no cut-off is given here.

In the case of `COc1ccc(Cl)cc1C(=O)NCCc1ccc(S(=O)(=O)NC(=O)N[C@H]2CC[C@H](O)CC2)cc1` [4-TRANS-HYDROXY-GLYBENCLAMIDE], the AUC in the assay with Rattus norvegicus stood at 34500 mg·min/dL. The Activity in assay [1] is 8.2; with Platelet, 76%; in assay [2] it was 6. For the same molecule, the result in the assay on Liver was inactive.

Take `COc1ccc(Cl)cc1C(=O)NCCc1ccc(S(=O)(=O)NC(=O)NC2CCCCC2)cc1` [GLYBURIDE]: the AUC in the assay on Rattus norvegicus was 33100 mg·min/dL. In addition, the Activity is on record as 5.2 in assay [1], 67% in the assay on Platelet and 4.3 in assay [2]. The result with Liver was inactive.

The Emax is the maximal effect, on the per cent scale that the assay sets. The IC50 is the concentration needed to halve the response being measured. On to `O=[N+]([O-])OCC(CO[N+](=O)[O-])O[N+](=O)[O-]` [NITROGLYCERIN], for which, in the assay on Aorta, the Emax was found to be 98% and the IC50 was 58.9 nM. The same molecule had an Activity in the assay with Liver of 600 nM. In the assay on Platelet, this molecule gave an Activity of 28%.
